Experimental data from US8754066B2, “Phenoxy derivatives as sphingosine 1-phosphate (S1P) receptor modulators” (Allergan, Inc., priority 2012, dated 2014).

The molecules below were run against T1, human S1P1 receptor (Homo sapiens, UniProt P21453) (assay: GTP γ35S binding assay for S1P1 activity). Conditions: activity potency from GTP γ35S binding; 5 μg membrane protein; test compounds 0.08 to 5,000 nM; 30 min at 25° C.
T1 construct: expressed in transfected cells; host or cells: unnamed cells stably expressing the receptor; membranes used
T1 sequence (P21453 whole entry): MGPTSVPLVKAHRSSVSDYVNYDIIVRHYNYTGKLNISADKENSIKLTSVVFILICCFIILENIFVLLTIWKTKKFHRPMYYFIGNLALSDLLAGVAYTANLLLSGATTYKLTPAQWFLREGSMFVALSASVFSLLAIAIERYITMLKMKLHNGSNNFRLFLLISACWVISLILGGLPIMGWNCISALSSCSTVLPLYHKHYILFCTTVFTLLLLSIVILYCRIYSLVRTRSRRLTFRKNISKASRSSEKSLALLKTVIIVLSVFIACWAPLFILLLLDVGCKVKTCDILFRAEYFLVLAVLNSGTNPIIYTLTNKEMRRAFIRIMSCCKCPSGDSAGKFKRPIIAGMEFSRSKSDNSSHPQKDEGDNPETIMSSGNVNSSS
Type: biochemical
Procedure: Compounds were synthesized and tested for S1P1 activity using the GTP γ^35S binding assay. These compounds may be assessed for their ability to activate or block activation of the human S1P1 receptor in cells stably expressing the […] receptor.
GTP γ^35S binding was measured in the medium containing (mM) HEPES 25, pH 7.4, MgCl2 10, NaCl 100, dithitothreitol 0.5, digitonin 0.003%, 0.2 nM GTP γ^35S, and 5 μg membrane protein in a volume of 150 μl. Test compounds were included in the concentration range from 0.08 to 5,000 nM unless indicated otherwise. Membranes were incubated with 100 μM 5′-adenylylimmidodiphosphate for 30 min, and subsequently with 10 μM GDP for 10 min on ice. Drug solutions and membrane were mixed, and then reactions were initiated by adding GTP γ^35S and continued for 30 min at 25° C. Reaction mixtures were filtered over Whatman GF/B filters under vacuum, and washed three times with 3 mL of ice-cold buffer (HEPES 25, pH7.4, MgCl2 10 and NaCl 100). Filters were dried and mixed with scintillant, and counted for ^35S activity using a β-counter. Agonist-induced GTP γ^35S binding was obtained by subtracting that in the absence of agonist. Binding data were analyzed using a non-linear regression method. In case of antagonist assay, the reaction mixture contained 10 nM S1P in the presence of test antagonist at concentrations ranging from 0.08 to 5000 nM.
Activity potency: S1P1 receptor from GTP γ^35S: nM, (EC50),

Row | SMILES | EC50 [nM]
1 | Cc1ccc(CC(CCCOc2ccc(CNCCC(=O)O)cc2)c2ccsc2)cc1C (centres unmarked) [Compound 1, 3-[(4-{[5-(3,4-dimethylphenyl)-4-(3-thienyl)pentyl]oxy}benzyl)amino]propanoic acid] | 14
2 | Cc1ccc(CC(CCCOc2ccc(CNCCC(=O)O)cc2)c2cccc(F)c2F)cc1C (centres unmarked) [Compound 2, 3-[(4-{[4-(2,3-difluorophenyl)-5-(3,4-dimethylphenyl)pentyl]oxy}benzyl)amino]propanoic acid] | 0.85
3 | Cc1ccc(CC(CCCOc2ccc(CNCCC(=O)O)cc2)c2cc(F)cc(F)c2)cc1C (centres unmarked) [Compound 4, 3-[(4-{[4-(3,5-difluorophenyl)-5-(3,4-dimethylphenyl)pentyl]oxy}benzyl)amino]propanoic acid] | 17.8
4 | Cc1ccc(CC(CCOc2ccc(CNCCC(=O)O)cc2)c2cccc(Cl)c2)cc1C (centres unmarked) [Compound 6, 3-({4-[3-(3-chlorophenyl)-4-(3,4-dimethylphenyl)butoxy]benzyl}amino)propanoic acid] | 96.9
5 | Cc1ccc(CC(CCCOc2ccc(CNCCCP(=O)(O)O)cc2)c2ccsc2)cc1C (centres unmarked) [Compound 7] | 2.08
6 | Cc1ccc(CC(CCCOc2ccc(CNCCCP(=O)(O)O)cc2)c2cc(F)cc(F)c2)cc1C (centres unmarked) [Compound 9, {3-[(4-{[4-(3,5-difluorophenyl)-5-(3,4-dimethylphenyl)pentyl]oxy}benzyl)amino]propyl}phosphonic acid] | 0.01
7 | Cc1ccc(CC(CCOc2ccc(CNCCCP(=O)(O)O)cc2)c2cccc(Cl)c2)cc1C (centres unmarked) [Compound 11, [3-({4-[3-(3-chlorophenyl)-4-(3,4-dimethylphenyl)butoxy]benzyl}amino)propyl]phosphonic acid] | 7.44

The next lines start with the values.

Row | EC50 [nM] | SMILES
8 | 134 | Cc1ccc(CC(CCCCOc2ccc(CNCCC(=O)O)cc2)c2cccc(Cl)c2)cc1C (centres unmarked) [Compound 3, 3-[(4-{[5-(3-chlorophenyl)-6-(3,4-dimethylphenyl)hexyl]oxy}benzyl)amino]propanoic acid]
9 | 59.5 | Cc1ccc(CC(CCCOc2ccc(CNCCC(=O)O)cc2)c2cccc(Cl)c2)cc1C (centres unmarked) [Compound 5, 3-[(4-{[4-(3-chlorophenyl)-5-(3,4-dimethylphenyl)pentyl]oxy}benzyl)amino]propanoic acid]
10 | 17.1 | Cc1ccc(CC(CCCCOc2ccc(CNCCCP(=O)(O)O)cc2)c2cccc(Cl)c2)cc1C (centres unmarked) [Compound 8, {3-[(4-{[5-(3-chlorophenyl)-6-(3,4-dimethylphenyl)hexyl]oxy}benzyl)amino]propyl}phosphonic acid]
11 | 0.23 | Cc1ccc(CC(CCCOc2ccc(CNCCCP(=O)(O)O)cc2)c2cccc(Cl)c2)cc1C (centres unmarked) [Compound 10, {3-[(4-{[4-(3-chlorophenyl)-5-(3,4-dimethylphenyl)pentyl]oxy}benzyl)amino]propyl}phosphonic acid]
